Test system: HCV RNA replication in HCV replicon cell (Huh-7 carrying the subgenomic HCV genotype 1 replicon)
Settings: read-out: Antiviral Activity HCV (EC50); cited from earlier work

| SMILES | EC50 [µM] |
| --- | --- |
| N#Cc1cccc(COc2cc(O)c3c(=O)c(O)c(-c4ccccc4)oc3c2)c1 [compound 4, reference compound] | 3 |
| O=c1c(OCc2cccc([N+](=O)[O-])c2)c(-c2ccccc2)oc2cc(O)cc(O)c12 [compound 3, reference compound] | 5 |

Test system: normal human fibroblast cell HS27
Settings: not given

| SMILES | Cytotoxicity: concentration required to reduce proliferation of normal human fibroblast cell HS27 by 50% [µM] |
| --- | --- |
| O=c1cc(OCc2cc(Cl)cc(Cl)c2)oc2ccc(OCc3cccc(Cl)c3)c(O)c12 [5d, 6-(3-chloro-benzyloxy)-2-(3,5-dichloro-benzyloxy)-5-hydroxy-chromen-4-one] | >50 |
| N#Cc1cccc(COc2cc(O)c3c(=O)c(O)c(-c4ccccc4)oc3c2)c1 [compound 4, reference compound] | >50 |
| O=c1cc(OCc2cccc(I)c2)oc2ccc(OCc3cccc(Cl)c3)c(O)c12 [5e, 6-(3-chloro-benzyloxy)-5-hydroxy-2-(3-iodo-benzyloxy)-chromen-4-one] | >50 |
| O=c1cc(OCc2ccccc2)oc2ccc(OCc3cccc(Cl)c3)c(O)c12 [5a, 2-benzyloxy-6-(3-chloro-benzyloxy)-5-hydroxy-chromen-4-one] | >50 |
| O=c1cc(OCc2cccc(Cl)c2)oc2ccc(OCc3cccc(Cl)c3)c(O)c12 [5b, 2,6-bis-(3-chloro-benzyloxy)-5-hydroxy-chromen-4-one] | >50 |
| O=c1cc(OCc2ccc(Cl)cc2)oc2ccc(OCc3cccc(Cl)c3)c(O)c12 [5c, 6-(3-chloro-benzyloxy)-2-(4-chloro-benzyloxy)-5-hydroxy-chromen-4-one] | >50 |
| O=c1cc(OCc2ccc(I)cc2)oc2ccc(OCc3cccc(Cl)c3)c(O)c12 [5f, 6-(3-chloro-benzyloxy)-5-hydroxy-2-(4-iodo-benzyloxy)-chromen-4-one] | >50 |
| O=c1c(OCc2cccc([N+](=O)[O-])c2)c(-c2ccccc2)oc2cc(O)cc(O)c12 [compound 3, reference compound] | >50 |
| N#Cc1cccc(COc2cc(=O)c3c(O)c(OCc4cccc(Cl)c4)ccc3o2)c1 [5g, 3-[6-(3-chloro-benzyloxy)-5-hydroxy-4-oxo-4H-chromen-2-yloxymethyl]-benzonitrile] | >50 |
| O=C(O)/C(O)=C/C(=O)c1cccc(NCc2ccc(Cl)cc2)c1 [compound 1, reference compound] | >50 |

Reference: publication PMC7115508 (European Journal of Medicinal Chemistry, 2011)
